Experimental data: patent US8927500B2, “Peptidomimetic macrocycles” (Aileron Therapeutics, Inc., priority 2012, dated 2015)
Read-outs that look alike come from different tables or passages of the source. Where a SMILES comes first, the peptide text is derived from it. Bridges are numbered along the chain shown (N, C = ends). [ ]: non-standard residue; d: D form. dPhe(4-CF3) = N[C@H](Cc1ccc(C(F)(F)F)cc1)C(=O)O; R8 = C=CCCCCCC[C@@](C)(N)C(=O)O; S8 = C=CCCCCCC[C@](C)(N)C(=O)O; Cba = N[C@@H](CC1CCC1)C(=O)O; R5 = C=CCCC[C@@](C)(N)C(=O)O; S5 = C=CCCC[C@](C)(N)C(=O)O; Nle = CCCC[C@H](N)C(=O)O; Aib = CC(C)(N)C(=O)O

Tests used:
MDM2 = MDM2 (Homo sapiens, UniProt Q00987); assay: Competitive fluorescence polarization assay for MDM2; type: binding; details: for Ki: read-out: Ki (MDM2)
Sequence of MDM2 (Q00987 1-125): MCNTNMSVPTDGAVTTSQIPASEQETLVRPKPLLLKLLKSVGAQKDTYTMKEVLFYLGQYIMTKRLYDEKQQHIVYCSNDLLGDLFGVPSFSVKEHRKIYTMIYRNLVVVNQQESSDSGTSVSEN

MDMX = molecular target: T1, MDMX (Homo sapiens, UniProt O15151); assay: Competitive fluorescence polarization assay for MDMX; type: binding; details: competitive FP assay; for IC50: read-out: IC50 (MDMX); for Ki: read-out: Ki (MDMX)
T1 sequence (O15151 1-125): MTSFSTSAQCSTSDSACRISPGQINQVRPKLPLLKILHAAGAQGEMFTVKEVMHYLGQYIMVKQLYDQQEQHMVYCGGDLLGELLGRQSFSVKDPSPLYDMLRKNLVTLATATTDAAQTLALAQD

Caspase 3 = Caspase 3 detection assay in SJSA1 cells; type: cell-based; details: 48 h, Caspase 3 activation over DMSO-treated cells; for caspase 3 uM: 3 uM peptide; for caspase 10 uM: 10 uM peptide; for caspase 30 uM: 30 uM peptide; for caspase 0.3 uM: 0.3 uM peptide
SJSA-1 cells = assay: Cell lysis by peptidomimetic macrocycles (LDH release); type: cell-based; details: 1 h at 37C
[1] = competitive FP assay, MDM2, read-out: IC50 (MDM2)

Compound	IC50 (MDM2; [1]) [nM]	Ki (MDM2; competitive FP assay, MDM2) [nM]	IC50 (MDMX) [nM]	Ki (MDMX) [nM]	caspase 3 uM (Caspase 3)	caspase 10 uM (Caspase 3)	caspase 30 uM (Caspase 3)	6.25 uM % Lysed cells (1 h LDH) (SJSA-1 cells) [%]	25 uM % Lysed cells (1 h LDH) (SJSA-1 cells) [%]	50 uM % Lysed cells (1 h LDH) (SJSA-1 cells) [%]	caspase 0.3 uM (Caspase 3)	caspase 1 uM (Caspase 3; 1 uM peptide)	IC50 (MDM2; IC50 (MDM2)) [nM]
CC[C@H](C)[C@H](NC(=O)[C@H](C)NC(=O)[C@H](C)NC(=O)[C@]1(C)CCCC=CCCCCCC[C@@](C)(NC(=O)[C@H](Cc2ccccc2)NC(=O)[C@@H](NC(=O)[C@H](CC(C)C)NC(C)=O)[C@@H](C)O)C(=O)N[C@@H](C)C(=O)N[C@@H](Cc2ccc(O)cc2)C(=O)N[C@@H](Cc2c[nH]c3ccccc23)C(=O)N[C@@H](C)C(=O)N[C@@H](CCC(N)=O)C(=O)N[C@@H](CC(C)C)C(=O)N1)C(=O)N[C@H](C)C(N)=O (single isomer, unassigned) [compound 70]	100 to 1000	< 10	100 to 1000	10 to 100	1	9	26						
CC[C@H](C)[C@H](NC(=O)[C@H](C)NC(=O)[C@H](C)NC(=O)[C@]1(C)CCCC=CCCCCCC[C@@](C)(NC(=O)[C@H](Cc2ccccc2)NC(=O)[C@@H](NC(=O)[C@H](CC(C)C)NC(C)=O)[C@@H](C)O)C(=O)N[C@@H](C)C(=O)N[C@@H](Cc2ccc(O)cc2)C(=O)N[C@@H](Cc2c[nH]c3ccccc23)C(=O)N[C@@H](C)C(=O)N[C@@H](CCC(N)=O)C(=O)N[C@@H](CC(C)C)C(=O)N1)C(=O)N[C@H](CC(C)C)C(N)=O (single isomer, unassigned) [compound 82]								0	0	1			
CC(=O)N[C@@H](CC(C)C)C(=O)N[C@H](C(=O)N[C@@H](Cc1ccccc1)C(=O)N[C@]1(C)CCCCCCC=CCCC[C@@](C)(C(=O)N[C@@H](C)C(=O)N[C@H](C(=O)NCC(N)=O)C(C)C)NC(=O)[C@H](CC(C)C)NC(=O)[C@H](CCC(N)=O)NC(=O)[C@H](C)NC(=O)[C@H](Cc2c[nH]c3ccccc23)NC(=O)[C@H](Cc2ccc(O)cc2)NC(=O)[C@H](C)NC1=O)[C@@H](C)O (single isomer, unassigned) [compound 108]								0	0	1			
CC(=O)N[C@@H](CC(C)C)C(=O)N[C@H](C(=O)N[C@@H](Cc1ccccc1)C(=O)N[C@]1(C)CCCCCCC=CCCC[C@@](C)(C(=O)N[C@@H](C)C(=O)N[C@H](C(=O)NCC(N)=O)C(C)C)NC(=O)[C@H](CC(C)C)NC(=O)[C@H](CCC(N)=O)NC(=O)[C@H](C)NC(=O)[C@H](Cc2c[nH]c3ccccc23)NC(=O)[C@H](Cc2ccc(O)cc2)NC(=O)[C@H](C)NC1=O)[C@@H](C)O (single isomer, unassigned) [compound 109]					4	16	25						
CC[C@H](C)[C@H](NC(=O)[C@H](C)NC(=O)[C@H](C)NC(=O)[C@]1(C)CCCC=CCCCCCC[C@@](C)(NC(=O)[C@H](Cc2ccccc2)NC(=O)[C@@H](NC(=O)[C@H](CCC(=O)O)NC(C)=O)[C@@H](C)O)C(=O)N[C@@H](CCC(=O)O)C(=O)N[C@@H](Cc2c[nH]cn2)C(=O)N[C@@H](Cc2c[nH]c3ccccc23)C(=O)N[C@@H](C)C(=O)N[C@@H](CCC(N)=O)C(=O)N[C@@H](CC(C)C)C(=O)N1)C(=O)N[C@H](C)C(N)=O (single isomer, unassigned) [compound 174]								5	2	5			
CC(=O)N[C@@H](C)C(=O)N[C@@H](C)C(=O)N[C@@H](CC(C)C)C(=O)N[C@H](C(=O)N[C@@H](Cc1ccccc1)C(=O)N[C@]1(C)CCCCCCC=CCCC[C@@](C)(C(=O)N[C@@H](CO)C(=O)N[C@@H](C)C(=O)N[C@@H](C)C(=O)N[C@@H](C)C(=O)N[C@H](C)C(N)=O)NC(=O)[C@H](CC2CCC2)NC(=O)[C@H](CCC(N)=O)NC(=O)[C@H](C)NC(=O)[C@H](Cc2c[nH]c3ccccc23)NC(=O)[C@H](Cc2ccc(O)cc2)NC(=O)[C@H](CCC(=O)O)NC1=O)[C@@H](C)O (single isomer, unassigned) [compound 358]					3	6	24				1	2	
CC(=O)N[C@@H](CC(C)C)C(=O)N[C@H](C(=O)N[C@@H](Cc1ccccc1)C(=O)N[C@]1(C)CCCCCCC=CCCC[C@@](C)(C(=O)N[C@@H](CO)C(=O)N[C@@H](C)C(=O)NC(C)(C)C(N)=O)NC(=O)[C@H](CC(C)C)NC(=O)[C@H](CCC(N)=O)NC(=O)[C@H](C)NC(=O)[C@H](Cc2c[nH]c3ccccc23)NC(=O)[C@H](Cc2ccc(O)cc2)NC(=O)[C@H](C)NC1=O)[C@@H](C)O [compound 10] (Ac-LTF[R8]AYWAQL[S5]SA[Aib]-NH2; staple 4-11)	100 to 1000	10 to 100	100 to 1000	10 to 100	1	17	32				1		
CC(=O)N[C@@H](CC(C)C)C(=O)N[C@H](C(=O)N[C@@H](Cc1ccccc1)C(=O)N[C@]1(C)CCCCCCC=CCCC[C@@](C)(C(=O)N[C@@H](C)C(=O)N[C@@H](Cc2c[nH]cn2)C(=O)N[C@@H](Cc2ccccc2)C(=O)N[C@@H](C)C(N)=O)NC(=O)[C@H](CC(C)C)NC(=O)[C@H](CCC(N)=O)NC(=O)[C@H](C)NC(=O)[C@H](Cc2c[nH]c3ccccc23)NC(=O)[C@H](Cc2ccc(O)cc2)NC(=O)[C@H](C)NC1=O)[C@@H](C)O [compound 50] (Ac-LTF[R8]AYWAQL[S5]AHFA-NH2; staple 4-11)	10 to 100	< 10	100 to 1000	10 to 100	8	29	29						
CC(=O)N[C@@H](CCC(=O)O)C(=O)N[C@H](C(=O)N[C@@H](Cc1ccccc1)C(=O)N[C@]1(C)CCCCCCC=CCCC[C@@](C)(C(=O)N[C@@H](CO)C(=O)N[C@@H](CC(C)C)C(=O)N[C@@H](C)C(N)=O)NC(=O)[C@H](CC(C)C)NC(=O)[C@H](CCC(N)=O)NC(=O)[C@H](C)NC(=O)[C@H](Cc2c[nH]c3ccccc23)NC(=O)[C@H](Cc2ccc(O)cc2)NC(=O)[C@H](C(C)C)NC1=O)[C@@H](C)O [compound 127] (Ac-ETF[R8]VYWAQL[S5]SLA-NH2; staple 4-11)	< 10	< 10	100 to 1000	10 to 100	1	4	13				1		
CCCC[C@H](NC(=O)[C@H](C)NC(=O)[C@H](C)NC(=O)[C@]1(C)CCCC=CCCCCCC[C@@](C)(NC(=O)[C@H](Cc2ccccc2)NC(=O)[C@@H](NC(=O)[C@H](CC(C)C)NC(C)=O)[C@@H](C)O)C(=O)N[C@@H](CCC(=O)O)C(=O)N[C@@H](Cc2ccc(O)cc2)C(=O)N[C@@H](Cc2c[nH]c3ccccc23)C(=O)N[C@@H](C)C(=O)N[C@@H](CCC(N)=O)C(=O)N[C@@H](CC2CCC2)C(=O)N1)C(=O)N[C@@H](C)C(N)=O [compound 238] (Ac-LTF[R8]EYWAQ[Cba][S5]AA[Nle]A-NH2; staple 4-11)	10 to 100	< 10	10 to 100	10 to 100	2	4	21				1		
CC(=O)N[C@@H](CC(C)C)C(=O)N[C@H](C(=O)N[C@@H](Cc1ccccc1)C(=O)N[C@]1(C)CCCCCCC=CCCC[C@@](C)(C(=O)N[C@@H](CO)C(=O)N[C@@H](C)C(=O)N[C@@H](Cc2ccccc2)C(=O)N[C@@H](C)C(N)=O)NC(=O)[C@H](CC2CCC2)NC(=O)[C@H](CCC(N)=O)NC(=O)[C@H](C)NC(=O)[C@H](Cc2c[nH]c3ccccc23)NC(=O)[C@H](Cc2ccc(O)cc2)NC(=O)[C@H](CCC(=O)O)NC1=O)[C@@H](C)O [compound 242] (Ac-LTF[R8]EYWAQ[Cba][S5]SAFA-NH2; staple 4-11)	10 to 100	< 10	100 to 1000	10 to 100	4	5	18				1		
CC(=O)N[C@@H](C(=O)N[C@H](C)C(=O)N[C@H](Cc1c[nH]c2ccccc12)C(=O)N[C@H](Cc1ccc(O)cc1)C(=O)N[C@@]1(C)CCCCCCC=CCCC[C@](C)(C(=O)N[C@H](C)C(N)=O)NC(=O)[C@@H](CC(C)C)NC(=O)[C@@H](CC(C)C)NC(=O)[C@@H](CCCCN)NC(=O)[C@@H](CCC(=O)O)NC(=O)[C@@H](Cc2ccc(C(F)(F)F)cc2)NC(=O)[C@@H](CC(N)=O)NC1=O)[C@H](C)O [compound 757] (Ac-[dT][dA][dW][dY][S8][dN][dPhe(4-CF3)][dE][dK][dL][dL][R5][dA]-NH2; staple 5-12)			> 1000										< 10
CC(=O)N[C@@H](C(=O)N[C@H](C)C(=O)N[C@H](Cc1c[nH]c2ccccc12)C(=O)N[C@H](Cc1ccc(O)cc1)C(=O)N[C@H](C)C(=O)N[C@@]1(C)CCCCCCC=CCCC[C@](C)(C(=O)N[C@H](C)C(N)=O)NC(=O)[C@@H](CCCNC(=N)N)NC(=O)[C@@H](CC(C)C)NC(=O)[C@@H](CC(C)C)NC(=O)[C@@H](CCCCN)NC(=O)[C@@H](CCC(=O)O)NC(=O)[C@@H](Cc2ccc(C(F)(F)F)cc2)NC1=O)[C@H](C)O [compound 758] (Ac-[dT][dA][dW][dY][dA][S8][dPhe(4-CF3)][dE][dK][dL][dL][dR][R5][dA]-NH2; staple 6-13)	10 to 100		> 1000										
